Measurements published in patent publication US20160257931A1, “METHOD FOR CULTURE OF CORNEAL ENDOTHELIAL CELLS, PROCESS FOR PRODUCTION OF CORNEAL ENDOTHELIAL CELL SHEET FOR TRANSPLANTATION PURPOSES, AND CULTURE KIT FOR CORNEAL ENDOTHELIAL CELLS” (CORNEA REGENERATION INSTITUTE CO., LTD., priority 2010, published 2016).

Legend:
Assay type in all cases: cell-based
[1] = tested on: human corneal endothelial cell; experiment: Subculture of corneal endothelial cells (passage stability)
Description: The primary cultured cells (10 donors, 14- to 69-year-old) obtained in the above-mentioned 1 were each subcultured as follows.
The primary cultured cells were washed with PBS and dispersed in 0.5% trypsin/0.2% EDTA. The basal medium was added thereto, the mixture was centrifuged (500 g, 5 min), and suspended in the basal medium containing 100 μg/ml ascorbyl 2-phosphate and comparison basal medium without containing the same. The cells were seeded at 1000 cells/cm^2 on a dish coated with atelocollagen, which was prepared in the same manner as in the above-mentioned 1, and cultured at 37° C., 5% CO2. When the cells reached confluence, a similar passage operation was repeated.

[2] = tested on: human corneal endothelial cell; experiment: Comparison with the conventional culture method on bovine corneal endothelial cell-producing extracellular substrate; details: FIG. 3
From the text: According to a conventionally-known method (Miyata K, Drake J, Osakabe Y, Hosokawa Y, Hwang D, Soya K, Oshika T, Amano S. Cornea. 2001 20:59-63), a human corneal endothelial cell was isolated and cultured. The method is briefly described in the following. The cornea was transferred into a 35 mm petri dish, and the endothelial face was washed with the basal medium. Using ultrafine forceps, the corneal endothelium was peeled off in a sheet with Descemet's membrane from the corneal inner periphery to the center, and transferred into a 35 mm petri dish. The Descemet's membrane was further cut into small slice pieces of about 2 mm square on the petri dish, and placed with the endothelial surface facing downward on a dish coated with an extracellular substrate produced by corneal endothelial cells of a fetal calf. The dish was carefully moved into an incubator at 37° C., 5% CO2, and cultured for 2-3 weeks while exchanging the medium every 2-3 days.
In any passage, more cells were obtained in the ascorbyl 2-phosphate addition group, and the total cell number reached after completion of the three passage operations was higher when cultured in the basal medium containing ascorbyl 2-phosphate.

[3] = tested on: human corneal endothelial cell; experiment: Primary culture of corneal endothelial cells in the presence of ascorbyl 2-phosphate; details: for Number of obtained cells in primary culture: Asc-2P(+) 100 μg/ml in basal medium, atelocollagen-coated dish
Description: Sclerocorneal segments prepared from 10 examples obtained from human eyes (from 14 to 69 years old) from Rocky Mountain Lions Eye Bank in a low temperature preservation state in a preservation solution (trade name: Optisol manufactured by Chiron corporation). The segments were 6 to 8 days old after death.
The sclerocorneal segments were transferred into a 35 mm petri dish, and the endothelial face was washed with DME medium containing 15% fetal calf serum (FCS) and 2 ng/ml basic fibroblast growth factor (bFGF) (hereinafter to be indicated as the basal medium).
Using ultrafine forceps, the corneal endothelium was peeled off in a sheet with the Descemet's membrane from the corneal inner periphery to the center and transferred into a 35 mm petri dish. The Descemet's membrane segment to which the corneal endothelial cells were attached was further cut into small pieces of about 2 mm square on the petri dish, and only the Descemet's slice pieces without attachment of a parenchymal tissue in a cottony form were recovered in a low adsorption centrifugation tube (manufactured by SUMITOMO BAKELITE Co., Ltd.), and incubated in the basal medium containing 0.2% collagenase (trade name: collagenase A, collagenase activity: >0.15 U/mg, manufactured by Roche K.K.) at 37° C., 5% CO2 for 1-3 hr.
The collagenase-treated cells were diluted with the basal medium, centrifugal washing (20 g, 2 min) was repeated three times, and the cells floating in the supernatant were removed. The cells were diluted with phosphate buffered saline (PBS), and centrifugal washing (20 g, 2 min) was performed once in the same manner. 0.5% Trypsin/0.2% ethylenediamine tetraacetic acid (EDTA) was added to the precipitated cell mass, and the mixture was incubated at 37° C., 5% CO2 for 5 min. The basal medium was added and the mixture was centrifuged (500 g, 5 min) to give cell pellets. The obtained cell pellets were resuspended in the basal medium containing 100 μg/ml ascorbyl 2-phosphate (manufactured by Wako Pure Chemical Industries, Ltd.) and the comparison basal medium without containing the same. The cells were each seeded on a dish prepared by the following method, and cultured in an incubator at 37° C., 5% CO2 for 2-4 weeks while exchanging the medium every 2-3 days.
5 mg/ml Atelocollagen (bovine dermis-derived acidic collagen solution, trade name: IAC-50, manufactured by KOKEN CO., LTD) was diluted 100-fold with 10 mM acetic acid, 1 ml thereof was added to a 35 mm dish, left standing at 37° C. for 1 hr, and washed twice with PBS (2 ml) to prepare a dish coated with atelocollagen.

O=C1O[C@H]([C@@H](O)CO)C(O)=C1OP(=O)(O)O [Asc-2P, ascorbyl 2-phosphate]
Number of cells obtained on completion of the subculture, versus no addition ([1]; all 10 cases, 100 μg/ml, seeded at 1000 cells/cm^2, repeated subculture): higher | Number of cells obtained on repeated subculture, addition group versus non-addition group ([1]; donor No. 8, FIG. 2 (a), (b)): higher | Cell form on completion of 6 passages ([1]; donor No. 8, FIG. 2 (c)): maintained a flagstone-like form | Proliferation efficiency versus conventional method [2]: higher proliferation efficiency | Total cell number reached after completion of the three passage operations, versus conventional method ([2]; atelocollagen plus ascorbyl 2-phosphate versus bovine corneal endothelial cell-producing extracellular substrate): higher | Number of obtained cells in primary culture ([3]; donor No. 1, 27 days of culture): 59 ×10e4 cells | Number of obtained cells in primary culture ([3]; donor No. 2, 21 days of culture): 32 ×10e4 cells | Number of obtained cells in primary culture ([3]; donor No. 3, 21 days of culture): 35 ×10e4 cells | Number of obtained cells in primary culture ([3]; donor No. 4, 22 days of culture): 39 ×10e4 cells | Number of obtained cells in primary culture ([3]; donor No. 5, 26 days of culture): 66 ×10e4 cells | Number of obtained cells in primary culture ([3]; donor No. 6, 22 days of culture): 27 ×10e4 cells | Number of obtained cells in primary culture ([3]; donor No. 7, 26 days of culture): 60 ×10e4 cells | Number of obtained cells in primary culture ([3]; donor No. 8, 23 days of culture): 308 ×10e4 cells | Number of obtained cells in primary culture ([3]; donor No. 9, 24 days of culture): 405 ×10e4 cells | Number of obtained cells in primary culture ([3]; donor No. 10, 29 days of culture): 20 ×10e4 cells | Number of corneal endothelial cells on completion of the primary culture, versus no addition ([3]; all 10 donors (14 to 69 years old), 100 μg/ml): strikingly increased | Cell form in primary culture ([3]; donor Nos. 5 and 7, basal medium containing ascorbyl 2-phosphate): flagstone-like cell images on the entire face of the culture dish
